Experimental data from US7935819B2, “Cyclic urea derivatives, preparation thereof and pharmaceutical use thereof as kinase inhibitors” (Aventis Pharma S.A., priority 2006, dated 2011).
Read-outs that look alike come from different tables or passages of the source.

Key:
[1] = biological target: T1, IGF-1R (human cytoplasmic domain fused with GST) (Homo sapiens, UniProt P08069); test: Kinase IGF-1R test (Test A): inhibition of autophosphorylation of the enzyme, HTRF; type: biochemical; details: 120 μM ATP
T1 construct: The human cytoplasmic domain of IGF-1R was cloned by fusion with glutathione S-transferase (GST); made in house; host or cells: SF21 insect cells (baculovirus, pFastBac-GST)
T1 sequence (P08069 960-1367 limits assumed): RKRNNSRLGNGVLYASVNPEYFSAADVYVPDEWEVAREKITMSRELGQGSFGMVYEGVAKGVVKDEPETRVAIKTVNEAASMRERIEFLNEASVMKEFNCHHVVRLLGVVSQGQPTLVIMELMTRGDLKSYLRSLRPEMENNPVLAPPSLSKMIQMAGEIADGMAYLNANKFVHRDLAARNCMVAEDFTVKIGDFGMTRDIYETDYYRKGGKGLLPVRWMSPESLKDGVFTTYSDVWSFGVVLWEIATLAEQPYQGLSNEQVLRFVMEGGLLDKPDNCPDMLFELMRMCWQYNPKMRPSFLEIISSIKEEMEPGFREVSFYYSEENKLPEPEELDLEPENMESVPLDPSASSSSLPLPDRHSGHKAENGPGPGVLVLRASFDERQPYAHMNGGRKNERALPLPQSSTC
Method: A) Experimental Protocol for the Kinase IGF-1R Test:
The inhibitory activity of the compounds on IGF1R is determined by measuring the inhibition of autophosphorylation of the enzyme using a time-resolved fluorescence test (HTRF). The human cytoplasmic domain of IGF-1R was cloned by fusion with glutathione S-transferase (GST) in the baculovirus expression vector pFastBac-GST. The protein is expressed in the SF21 cells and purified to about 80% homogeneity. For the enzymatic test, the test compound at 10 mM dissolved in DMSO is diluted in 1/3 steps in a 50 mM Hepes, pH 7.5, 5 mM MnCl2, 50 mM NaCl, 3% Glycerol, 0.025% Tween 20 buffer. To measure the inhibition, the successive dilutions of the compound are preincubated for 30 minutes and 90 minutes in the presence of 5 nM of enzyme, the final DMSO concentration not exceeding 1%. The enzymatic reaction is initiated to have a final ATP concentration of 120 μM, and is stopped after 5 minutes by addition of 100 mM Hepes, pH 7.0 buffer containing 0.4 M of potassium fluoride, 133 mM EDTA, 0.1% BSA, the XL665-labelled antibody anti-GST and the anti-phosphotyrosine antibody conjugated to europium cryptate Eu—K (Cis-Bio Int.). The characteristics of the two fluorophores, XL-665 and Eu—K, are available in G. Mathis et al., Anticancer Research, 1997, 17, pages 3011-3014. The energy transfer between the excited europium cryptate to the acceptor XL665 is proportional to the degree of autophosphorylation of IGF-1R. The specific long-lasting signal of XL-665 is measured in a GENios Pro TECAN plate counter. The inhibition of autophosphorylation of IGF-1R at time 30 minutes and 90 minutes with the test compounds of the invention is calculated relative to a 1% in DMSO control, whose activity is measured in the absence of compound. The curve representing the percentage of inhibition as a function of the log of the concentration is established to determine the concentration corresponding to 50% inhibition (IC50).

IGF1R in MCF-7 cells = biological target: T2, IGF1R in MCF-7 cells (Homo sapiens, UniProt P08069); test: Autophosphorylation of IGF-1R in MCF7 cells after stimulation with IGF-1 (Test B), ELISA; type: cell-based; details: compound added one hour before IGF1 stimulation (10 minutes)
T2 construct: endogenous in cells; host or cells: MCF-7 cells
T2 sequence (P08069 31-1367): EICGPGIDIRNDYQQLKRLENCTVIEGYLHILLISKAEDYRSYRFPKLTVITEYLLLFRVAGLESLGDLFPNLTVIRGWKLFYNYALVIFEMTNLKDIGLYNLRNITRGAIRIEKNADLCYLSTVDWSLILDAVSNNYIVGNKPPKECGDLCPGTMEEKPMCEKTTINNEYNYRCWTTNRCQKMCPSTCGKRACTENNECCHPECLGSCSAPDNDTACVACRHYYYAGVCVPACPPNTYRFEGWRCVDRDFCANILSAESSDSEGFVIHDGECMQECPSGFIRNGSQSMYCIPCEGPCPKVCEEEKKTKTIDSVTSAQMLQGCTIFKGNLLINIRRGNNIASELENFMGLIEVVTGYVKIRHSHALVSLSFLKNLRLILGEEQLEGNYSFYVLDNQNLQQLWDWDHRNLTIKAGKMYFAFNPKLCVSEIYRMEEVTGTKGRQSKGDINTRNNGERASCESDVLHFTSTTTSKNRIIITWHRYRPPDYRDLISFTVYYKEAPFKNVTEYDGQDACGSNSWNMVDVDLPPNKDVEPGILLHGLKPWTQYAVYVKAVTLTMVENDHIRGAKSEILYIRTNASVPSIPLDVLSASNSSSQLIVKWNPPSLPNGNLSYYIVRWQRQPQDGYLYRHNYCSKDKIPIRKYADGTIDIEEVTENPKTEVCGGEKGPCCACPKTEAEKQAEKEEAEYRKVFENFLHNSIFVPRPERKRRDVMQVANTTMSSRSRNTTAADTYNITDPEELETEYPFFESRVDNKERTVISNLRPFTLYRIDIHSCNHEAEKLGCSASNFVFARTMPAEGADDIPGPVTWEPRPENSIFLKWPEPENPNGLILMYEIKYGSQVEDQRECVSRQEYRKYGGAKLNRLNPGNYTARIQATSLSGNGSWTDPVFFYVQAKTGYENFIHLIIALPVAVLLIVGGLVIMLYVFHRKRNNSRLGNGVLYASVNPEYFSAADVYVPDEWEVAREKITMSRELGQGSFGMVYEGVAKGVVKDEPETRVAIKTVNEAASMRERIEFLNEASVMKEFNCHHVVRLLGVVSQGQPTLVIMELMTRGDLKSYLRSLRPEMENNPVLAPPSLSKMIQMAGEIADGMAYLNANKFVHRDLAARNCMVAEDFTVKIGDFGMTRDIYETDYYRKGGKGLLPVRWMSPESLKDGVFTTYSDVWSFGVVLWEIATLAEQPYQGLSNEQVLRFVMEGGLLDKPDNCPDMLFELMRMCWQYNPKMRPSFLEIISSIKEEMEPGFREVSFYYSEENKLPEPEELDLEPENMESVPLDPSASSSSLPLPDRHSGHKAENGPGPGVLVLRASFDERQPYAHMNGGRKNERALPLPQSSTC
Method: B) Measurement of the Autophosphorylation of IGF-1r in MCF7 Cells after Stimulation with IGF-1
Cell Culturing and Execution of the Test:
The autophosphorylation of IGF1R in the IGF1-induced cells is evaluated by means of an ELISA technique (Enzyme Linked ImmunoSorbent Assay). The MCF-7 are seeded at 60 000 cells per well in 6-well plates and incubated at 37° C., 5% CO2 in medium containing 10% serum. After one night in 10% serum, the cells are deprived of serum for 24 hours. The compounds are added to the medium one hour before stimulation with IGF1. After 10 minutes of stimulation with IGF1, the cells are lysed with a buffer (Hepes 50 mM pH 7.6, Triton X100 1%, orthovanadate 2 mM, protease inhibitor cocktail). The cell lysates are incubated on a 96-well plate precoated with an anti-IGF1R antibody, followed by incubation with an anti-phosphotyrosine antibody coupled to the enzyme peroxidase. The level of peroxidase activity (measured by OD with a luminescent substrate) reflects the phosphorylation status of the receptor.
(§1) (i) The tests are performed in duplicate and the mean of the two tests is calculated.
(§2) (ii) The value of the signal of the maximum response is calculated from the positive control: cells stimulated with IGF1 without compound.
(§3) (iii) Value of the signal of the minimum response is calculated from the negative control: cells not stimulated with IGF1 without compound.
(§4) (iv) By using these values as maximum (100%) and minimum (0%), respectively, the data were normalized so as to give a percentage of the maximum response.
(§5) (v) A curve of dose response is plotted and the IC50 (the concentration of which the compound induces a 50% decrease in the signal) of the compound is calculated by non-linear regression analysis.

[2] = biological target: MEF-IGF1R cells (stable clone transfected with hIGF-1R) (Homo sapiens, UniProt P08069); test: Proliferation/viability of MEF-IGF1R (Test C), [14C]thymidine incorporation; type: cell-based; details: rhIGF1 100 ng/mL, 72 hours, read-out: Test C IC50
Sequence of MEF-IGF1R cells (stable clone transfected with hIGF-1R) (P08069 whole entry, change not shown): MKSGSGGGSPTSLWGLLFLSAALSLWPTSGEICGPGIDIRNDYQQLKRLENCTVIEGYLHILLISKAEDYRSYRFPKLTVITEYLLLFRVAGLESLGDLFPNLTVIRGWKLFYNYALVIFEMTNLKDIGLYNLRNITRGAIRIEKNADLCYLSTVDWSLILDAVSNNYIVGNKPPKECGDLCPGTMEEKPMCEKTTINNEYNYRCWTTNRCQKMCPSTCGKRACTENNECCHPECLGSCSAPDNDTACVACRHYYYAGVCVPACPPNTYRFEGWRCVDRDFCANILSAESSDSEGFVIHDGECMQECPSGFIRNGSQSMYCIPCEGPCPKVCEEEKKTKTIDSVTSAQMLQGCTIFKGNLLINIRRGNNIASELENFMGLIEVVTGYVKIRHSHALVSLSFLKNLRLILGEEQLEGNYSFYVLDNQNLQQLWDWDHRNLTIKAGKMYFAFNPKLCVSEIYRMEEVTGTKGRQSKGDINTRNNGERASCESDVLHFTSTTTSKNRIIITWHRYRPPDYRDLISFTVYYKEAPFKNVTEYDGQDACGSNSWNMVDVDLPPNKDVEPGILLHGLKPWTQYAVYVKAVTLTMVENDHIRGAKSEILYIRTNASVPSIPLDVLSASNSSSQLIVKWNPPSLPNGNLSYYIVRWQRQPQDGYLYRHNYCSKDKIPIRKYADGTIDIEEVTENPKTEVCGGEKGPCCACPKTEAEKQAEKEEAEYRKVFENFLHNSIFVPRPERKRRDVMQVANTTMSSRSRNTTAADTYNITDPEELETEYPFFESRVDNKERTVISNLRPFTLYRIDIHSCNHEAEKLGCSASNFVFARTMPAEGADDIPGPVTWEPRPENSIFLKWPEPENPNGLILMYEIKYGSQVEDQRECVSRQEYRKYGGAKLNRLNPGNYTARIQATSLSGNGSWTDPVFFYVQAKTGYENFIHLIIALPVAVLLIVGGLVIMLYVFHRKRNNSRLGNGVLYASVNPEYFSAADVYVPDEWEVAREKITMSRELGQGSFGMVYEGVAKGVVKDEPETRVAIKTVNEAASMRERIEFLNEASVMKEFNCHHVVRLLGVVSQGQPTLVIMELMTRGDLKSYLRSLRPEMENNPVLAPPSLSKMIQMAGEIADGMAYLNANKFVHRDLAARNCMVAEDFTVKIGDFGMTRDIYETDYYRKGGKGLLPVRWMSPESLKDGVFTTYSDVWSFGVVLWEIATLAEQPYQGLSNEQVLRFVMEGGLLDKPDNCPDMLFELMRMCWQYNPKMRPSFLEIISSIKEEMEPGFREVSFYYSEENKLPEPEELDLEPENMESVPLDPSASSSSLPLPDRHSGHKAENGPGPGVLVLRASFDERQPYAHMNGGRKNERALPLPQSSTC
Method: C) Measurement of the Proliferation/Viability of MEF-IGF1R
Cell culture: the MEF-IGF1R cells (stable clone of cells transfected with the receptor hIGF-1R) are cultured at 37° C. under 5% CO2 in EMEM medium containing 10% FCS.
Test procedure: the cells are seeded at 5000 cells per well in 96-well Cytostar plates (Amersham) with 0.2 mL of EMEM culture medium at 37° C. for 18 hours. The cells are then washed twice with EMEM medium and left to culture without serum for 24 hours. The compounds are then added at various concentrations in the presence of rhIGF1 (100 ng/mL) and 0.1 μCi of Thymidine [^14C] (specific activity ˜50 mCi/mmol) to give 0.2 mL of volume per well. After incubation for 72 hours in the presence of the compound, at 37° C. under 5% CO2, the incorporation of Thymidine [^14C] is measured by counting the radioactivity on a Microbeta trilux counter (Perkin-Elmer). The IC50 is determined from 10 increasing concentrations of the compound.
as §1, §2, §3, §4, §5

[3] = preincubation with enzyme 30 minutes, read-out: Test A 30′ IC50
[4] = preincubation with enzyme 90 minutes, read-out: Test A 90′ IC50

SMILES	IC50 [1, 3]	IC50 [1, 4]	IC50 (IGF1R in MCF-7 cells)	GI50 [2]
CC(C)(C)c1ccc(N2C(=O)N(Cc3ccnc(Nc4ccc(O)nc4)c3)C(C)(C)C2=O)cc1 [Example 31M, 3-(4-tert-butylphenyl)-1-({2-[(6-hydroxypyridin-3-yl)amino]pyridin-4-yl}methyl)-5,5-dimethylimidazolidine-2,4-dione]	10 to 100 nM	10 to 100 nM	10 to 100 nM	10 to 100 nM
CC(C)(CO)c1ccc(N2C(=O)N(Cc3ccnc(Nc4cccnc4)c3)C(C)(C)C2=O)cc1 [Example 31N, 3-[4-(2-hydroxy-1,1-dimethylethyl)phenyl]-5,5-dimethyl-1-{[2-(pyridin-3-ylamino)pyridin-4-yl]methyl}-imidazolidine-2,4-dione]	> 100 nM	10 to 100 nM	10 to 100 nM	> 100 nM
CC(C)(C)c1ccc(N2C(=O)N(Cc3ccnc(NC(=O)Nc4cccnc4)c3)C(C)(C)C2=O)cc1 [Example 31O, 1-(4-{[3-(4-tert-butylphenyl)-5,5-dimethyl-2,4-dioxoimidazolidin-1-yl]methyl}pyridin-2-yl)-3-pyridin-3-ylurea]	> 100 nM	> 100 nM	10 to 100 nM	10 to 100 nM
CC(C)(C)c1ccc(N2C(=O)N(Cc3ccnc(NC(N)=O)c3)C(C)(C)C2=O)cc1 [Example 31P, 1-(4-{[3-(4-tert-butylphenyl)-5,5-dimethyl-2,4-dioxoimidazolidin-1-yl]methyl}pyridin-2-yl)urea]	10 to 100 nM	< 10 nM	10 to 100 nM	< 10 nM
COC(=O)Nc1cc(CN2C(=O)N(c3ccc(C(C)(C)C)cc3)C(=O)C2(C)C)ccn1 [Example 31Q, methyl (4-{[3-(4-tert-butylphenyl)-5,5-dimethyl-2,4-dioxoimidazolidin-1-yl]methyl}pyridin-2-yl)carbamate]	10 to 100 nM	< 10 nM	< 10 nM	10 to 100 nM
CC(C)(C)c1ccc(N2C(=O)N(Cc3ccnc(Nc4ccc(CCN5CCCC5)cc4)c3)C(C)(C)C2=O)cc1 [Example 31U, 3-(4-tert-butylphenyl)-5,5-dimethyl-1-[(2-{[4-(2-pyrrolidin-1-ylethyl)phenyl]amino}pyridin-4-yl)methyl]imidazolidine-2,4-dione]	10 to 100 nM	< 10 nM	< 10 nM	< 10 nM
